Key:
[1] = test system: Langendorff's perfused rat hearts; assay: Lasting antiarrhythmic action after po administration, hearts removed and mounted on Langendorff's apparatus; format: in vivo; parameters: ke: unit not given beside the values
Method: 1, 3 and 6 hours after the administration of 100 mg/kg of I13 by p.o. to rats, the hearts were removed and mounted onto Langendorff's apparatus. […] (see FIG. 4)
FIG. 4. Influence of po I13 and mexiletine on the time course of reperfusion-induced arrhythmias in Langendorff's perfused rat hearts

[2] = test system: normal papillary muscles of guinea pig; assay: Action potential of normal papillary muscles of guinea pig; format: cell-based; conditions: for APA (action potential amplitude) / APD20 / APD50 / APD90 / ERP (effective refractory period) / RP (resting potential) / Vmax: n=7
Text: Effect of I13 on estimates of action potential of normal papillary

Question: `COc1ccc2c(c1OC)C[N+]1(Cc3ccc(Cl)cc3)CCc3cc4c(cc3C1C2)OCO4` (centres unmarked) [Compound I13, 7-(4-chlorobenzyl)-5,8,13,13a-tetrahydroberberine chloride] was tested. Which ke ([1]; 30 mg/kg po at 1 hr before experiment (FIG. 4)) did it give?
Answer: 0.144

Question: What about the ke ([1]; 100 mg/kg po at 1 hr before experiment (FIG. 4)) of the same compound?
Answer: 0.556

Question: And the ke ([1]; 100 mg/kg po at 3 hr before experiment (FIG. 4))?
Answer: 0.056

Question: And the ke ([1]; 100 mg/kg po at 6 hr before experiment (FIG. 4))?
Answer: 0.037

Question: And the “antiarrhythmic effects after washing isolated hearts” value ([1]; 1, 3 and 6 hours after p.o. 100 mg/kg, 30 min washing)?
Answer: persisted even after 30 minutes of washing

Question: And the “influence on APA” value [2]?
Answer: no influence

Question: And the “influence on RP” value [2]?
Answer: no influence

Question: And the “influence on APD50 (printed ADP50)” value ([2]; 0.3 μmol/L)?
Answer: able to lengthen ADP50

Question: And the “APA (action potential amplitude)” value ([2]; 0.3 μmol/L)?
Answer: 125 ± 3 mv

Question: And the APD20 ([2]; 0.3 μmol/L)?
Answer: 88 ± 13 ms

Question: What about the APD50 ([2]; 0.3 μmol/L) of the same compound?
Answer: 176 ± 29 ms

Question: What about the APD90 ([2]; 0.3 μmol/L) of the same compound?
Answer: 201 ± 30 ms

Question: What about the “ERP (effective refractory period)” value ([2]; 0.3 μmol/L) of the same compound?
Answer: 201 ± 28 ms

Question: And the “RP (resting potential)” value ([2]; 0.3 μmol/L)?
Answer: 91 ± 1 mv

Question: And the Vmax ([2]; 0.3 μmol/L)?
Answer: 260 ± 60 v/s

Question: And the “APA (action potential amplitude)” value ([2]; 1 μmol/L)?
Answer: 123 ± 3 mv

Question: What about the APD20 ([2]; 1 μmol/L) of the same compound?
Answer: 86 ± 10 ms

Question: And the APD50 ([2]; 1 μmol/L)?
Answer: 181 ± 27 ms

Question: And the APD90 ([2]; 1 μmol/L)?
Answer: 208 ± 29 ms

Question: What about the “ERP (effective refractory period)” value ([2]; 1 μmol/L) of the same compound?
Answer: 207 ± 27 ms

Question: What about the “RP (resting potential)” value ([2]; 1 μmol/L) of the same compound?
Answer: 90 ± 1 mv

Question: What about the Vmax ([2]; 1 μmol/L) of the same compound?
Answer: 250 ± 70 v/s

Question: What about the “APA (action potential amplitude)” value ([2]; 3 μmol/L) of the same compound?
Answer: 123 ± 3 mv

Question: What about the APD20 ([2]; 3 μmol/L) of the same compound?
Answer: 84 ± 8 ms

Question: And the APD50 ([2]; 3 μmol/L)?
Answer: 182 ± 23 ms

Question: And the APD90 ([2]; 3 μmol/L)?
Answer: 211 ± 26 ms

Question: What about the “ERP (effective refractory period)” value ([2]; 3 μmol/L) of the same compound?
Answer: 213 ± 18 ms

Question: And the “RP (resting potential)” value ([2]; 3 μmol/L)?
Answer: 89 ± 3 mv

Question: And the Vmax ([2]; 3 μmol/L)?
Answer: 217 ± 60 v/s

Question: What about the “APA (action potential amplitude)” value ([2]; 10 μmol/L) of the same compound?
Answer: 122 ± 3 mv

Question: And the APD20 ([2]; 10 μmol/L)?
Answer: 80 ± 5 ms

Question: And the APD50 ([2]; 10 μmol/L)?
Answer: 161 ± 28 ms

Question: What about the APD90 ([2]; 10 μmol/L) of the same compound?
Answer: 206 ± 26 ms

Question: And the “ERP (effective refractory period)” value ([2]; 10 μmol/L)?
Answer: 211 ± 23 ms

Question: And the “RP (resting potential)” value ([2]; 10 μmol/L)?
Answer: 89 ± 1 mv

Question: What about the Vmax ([2]; 10 μmol/L) of the same compound?
Answer: 180 ± 60 v/s

Question: And the “APA (action potential amplitude)” value ([2]; 30 μmol/L)?
Answer: 116 ± 5 mv

Question: And the APD20 ([2]; 30 μmol/L)?
Answer: 58 ± 11 ms

Question: What about the APD50 ([2]; 30 μmol/L) of the same compound?
Answer: 128 ± 19 ms

Question: And the APD90 ([2]; 30 μmol/L)?
Answer: 158 ± 22 ms

Question: What about the “ERP (effective refractory period)” value ([2]; 30 μmol/L) of the same compound?
Answer: 166 ± 24 ms

Question: And the “RP (resting potential)” value ([2]; 30 μmol/L)?
Answer: 87 ± 3 mv

Question: What about the Vmax ([2]; 30 μmol/L) of the same compound?
Answer: 140 ± 50 v/s

Question: And the “influence on APD50 and APD90 (printed ADP50, ADP90)” value ([2]; 1 to 3 μmol/L)?
Answer: prolonged

Question: And the inhibition at 3 µM ([2]; Cavia porcellus, 3 μmol/L, isolated papillary muscles of guinea pigs, read-out: inhibition of Vmax)?
Answer: 20%

Question: What about the antiarrhythmic class properties ([2]; electrophysiological studies) of the same compound?
Answer: properties of Ia, Ib and III

Question: What about the “two-phase effect on APD” value ([2]; low vs high concentrations) of the same compound?
Answer: lengthened at low concentrations and shortened at high concentrations
